Measured values: patent publication US8802597B2, “Herbicidal pyrimidines” (E I du Pont de Nemours and Company, priority 2003, dated 2014)

Assays:
Format in all cases: in vivo
[1] = system: rice (Oryza sativa); test: Test B flooded paddy test; details: Flood, 1000 g ai/ha; scale 0 to 100
Method in brief: (§1)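 Plants were grown to the 2-leaf stage before treatment, then kept in a greenhouse for 13 to 15 days. Injury was rated visually against untreated controls on a 0 to 100 scale, where 0 is no effect and 100 is complete control.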

[2] = system: barnyardgrass (Echinochloa crus-galli); test: Test B flooded paddy test; details: Flood, 1000 g ai/ha; scale 0 (no effect) to 100 (complete control)
Method in brief: as §1

[3] = system: duck salad (Heteranthera limosa); test: Test B flooded paddy test; details: Flood, 1000 g ai/ha; scale 0 to 100
Method in brief: as §1

[4] = system: umbrella sedge (Cyperus difformis); test: Test B flooded paddy test; details: Flood, 1000 g ai/ha; scale 0 to 100
Method in brief: as §1

[5] = system: wild oat (Avena fatua); test: Test B postemergence; details: for Oat, Wild plant response rating: scale 0 to 100 (0 no effect, 100 complete control); for Plant response rating, Oat, Wild: 500 g ai/ha, scale 0 to 100
Method in brief: (§2)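 Plants treated pre- or postemergence were compared visually with controls after 13 to 15 days. Ratings ran from 0, no effect, to 100, complete control.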

[6] = system: blackgrass (Alopecurus myosuroides); test: Test B postemergence; details: for Blackgrass plant response rating: scale 0 to 100 (0 no effect, 100 complete control); for Plant response rating, Blackgrass: 500 g ai/ha, scale 0 to 100
Method in brief: as §2

[7] = system: giant foxtail (Setaria faberii); test: Test B pre/postemergence
Method in brief: as §2

[8] = system: cocklebur (Xanthium strumarium); test: Test B pre/postemergence
Method in brief: as §2

[9] = system: wheat (Triticum aestivum); test: Test B pre/postemergence
Method in brief: as §2

[10] = system: morningglory (Ipomoea coccinea); test: Test B pre/postemergence
Method in brief: as §2

[11] = system: lambsquarters (Chenopodium album); test: Test B pre/postemergence
Method in brief: as §2

[12] = system: Surinam grass (Brachiaria decumbens); test: Test B pre/postemergence
Method in brief: as §2

[13] = system: barnyardgrass (Echinochloa crus-galli); test: Test B pre/postemergence
Method in brief: as §2

[14] = system: velvetleaf (Abutilon theophrasti); test: Test B pre/postemergence
Method in brief: as §2

[15] = system: crabgrass (Digitaria sanguinalis); test: Test B pre/postemergence
Method in brief: as §2

[16] = system: corn (Zea mays); test: Test B pre/postemergence
Method in brief: as §2

[17] = system: pigweed (Amaranthus retroflexus); test: Test B pre/postemergence
Method in brief: as §2

[18] = Postemergence, 62 g ai/ha, scale 0 to 100 (0 no effect, 100 complete control)
[19] = Postemergence, 500 g ai/ha, scale 0 to 100
[20] = Preemergence, 62 g ai/ha, scale 0 to 100, 0 no effect, 100 complete control
[21] = Preemergence, 500 g ai/ha, scale 0 to 100 (0 no effect, 100 complete control)
[22] = Postemergence, 125 g ai/ha, scale 0 to 100 (0 no effect, 100 complete control)
[23] = Preemergence, 125 g ai/ha, scale 0 to 100 (0 no effect, 100 complete control)

CCOC(=O)C(Cl)c1nc(C2CC2)nc(N)c1Br (stereo not drawn) [Compound 31]
0: Plant response rating, Sedge, Umbrella [4] | Oat, Wild plant response rating ([5]; 62 g ai/ha) | Plant response rating, Oat, Wild [5] | Blackgrass plant response rating ([6]; 62 g ai/ha) | Plant response rating, Blackgrass [6] | Foxtail, Giant plant response rating [7, 18] | Plant response rating, Foxtail, Giant [7, 19] | Wheat plant response rating [9, 18] | Plant response rating, Wheat [9, 19] | Surinam Grass plant response rating [12, 18] | Plant response rating, Surinam Grass [12, 19] | Barnyardgrass plant response rating [13, 18] | Plant response rating, Barnyardgrass [13, 19] | Crabgrass plant response rating [15, 18] | Corn plant response rating [16, 18] | Plant response rating, Corn [16, 19] | Plant response rating, Corn [16, 20]
50: Morningglory plant response rating [10, 18] | Plant response rating, Pigweed [17, 19]
100: Cocklebur plant response rating [8, 21] | Morningglory plant response rating [10, 21] | Lambsquarters plant response rating [11, 21] | Pigweed plant response rating [17, 21]
60: Plant response rating, Ducksalad [3] | Surinam Grass plant response rating [12, 21] | Plant response rating, Velvetleaf [14, 19]
90: Plant response rating, Cocklebur [8, 20] | Plant response rating, Morningglory [10, 20] | Plant response rating, Lambsquarters [11, 20] | Velvetleaf plant response rating [14, 21] | Plant response rating, Pigweed [17, 20]
40: Plant response rating, Wheat [9, 20] | Lambsquarters plant response rating [11, 18] | Corn plant response rating [16, 21]
10: Plant response rating, Foxtail, Giant [7, 20] | Velvetleaf plant response rating [14, 18] | Plant response rating, Crabgrass [15, 20]
70: Cocklebur plant response rating [8, 18] | Wheat plant response rating [9, 21] | Plant response rating, Morningglory [10, 19] | Plant response rating, Lambsquarters [11, 19] | Barnyardgrass plant response rating [13, 21]
20: Plant response rating, Rice [1] | Plant response rating, Surinam Grass [12, 20] | Plant response rating, Barnyardgrass [13, 20] | Pigweed plant response rating [17, 18]
80: Foxtail, Giant plant response rating [7, 21] | Plant response rating, Cocklebur [8, 19] | Plant response rating, Velvetleaf [14, 20] | Crabgrass plant response rating [15, 21]
30: Plant response rating, Barnyardgrass [2] | Plant response rating, Crabgrass [15, 19]

CCOC(=O)Cc1nc(C2CC2)nc(N=CN(C)C)c1Br [Compound 33]
10: Foxtail, Giant plant response rating [7, 22] | Crabgrass plant response rating [15, 22] | Plant response rating, Corn [16, 23]
100: Lambsquarters plant response rating [11, 21]
50: Wheat plant response rating [9, 21] | Barnyardgrass plant response rating [13, 21] | Plant response rating, Velvetleaf [14, 19] | Crabgrass plant response rating [15, 21]
0: Plant response rating, Rice [1] | Plant response rating, Barnyardgrass [2] | Plant response rating, Ducksalad [3] | Plant response rating, Sedge, Umbrella [4] | Plant response rating, Foxtail, Giant [7, 23] | Plant response rating, Wheat [9, 23] | Plant response rating, Morningglory [10, 23] | Surinam Grass plant response rating [12, 22] | Plant response rating, Surinam Grass [12, 19] | Plant response rating, Surinam Grass [12, 23] | Barnyardgrass plant response rating [13, 22] | Plant response rating, Crabgrass [15, 23] | Corn plant response rating [16, 22] | Plant response rating, Corn [16, 19]
70: Plant response rating, Morningglory [10, 19] | Plant response rating, Lambsquarters [11, 19] | Plant response rating, Velvetleaf [14, 23]
30: Corn plant response rating [16, 21]
20: Oat, Wild plant response rating ([5]; 125 g ai/ha) | Plant response rating, Oat, Wild [5] | Wheat plant response rating [9, 22] | Plant response rating, Wheat [9, 19] | Plant response rating, Barnyardgrass [13, 19] | Plant response rating, Barnyardgrass [13, 23] | Plant response rating, Crabgrass [15, 19]
40: Blackgrass plant response rating ([6]; 125 g ai/ha) | Plant response rating, Blackgrass [6] | Plant response rating, Foxtail, Giant [7, 19] | Foxtail, Giant plant response rating [7, 21] | Morningglory plant response rating [10, 22] | Surinam Grass plant response rating [12, 21] | Velvetleaf plant response rating [14, 22]
80: Plant response rating, Cocklebur [8, 19] | Plant response rating, Cocklebur [8, 23] | Velvetleaf plant response rating [14, 21] | Plant response rating, Pigweed [17, 19] | Plant response rating, Pigweed [17, 23]
60: Cocklebur plant response rating [8, 22] | Lambsquarters plant response rating [11, 22] | Pigweed plant response rating [17, 22]
90: Cocklebur plant response rating [8, 21] | Morningglory plant response rating [10, 21] | Plant response rating, Lambsquarters [11, 23] | Pigweed plant response rating [17, 21]

CCOC(=O)C(Cl)(Cl)c1nc(C2CC2)nc(N)c1Br [Compound 34]
50: Plant response rating, Foxtail, Giant [7, 19] | Plant response rating, Lambsquarters [11, 23] | Plant response rating, Surinam Grass [12, 19] | Surinam Grass plant response rating [12, 21] | Pigweed plant response rating [17, 22]
60: Blackgrass plant response rating ([6]; 125 g ai/ha) | Cocklebur plant response rating [8, 21] | Morningglory plant response rating [10, 22] | Plant response rating, Barnyardgrass [13, 19] | Plant response rating, Velvetleaf [14, 19] | Velvetleaf plant response rating [14, 21]
30: Oat, Wild plant response rating ([5]; 125 g ai/ha) | Plant response rating, Cocklebur [8, 23] | Wheat plant response rating [9, 22] | Velvetleaf plant response rating [14, 22] | Plant response rating, Velvetleaf [14, 23] | Plant response rating, Crabgrass [15, 19]
40: Plant response rating, Oat, Wild [5] | Plant response rating, Wheat [9, 19] | Plant response rating, Pigweed [17, 23]
70: Plant response rating, Blackgrass [6] | Plant response rating, Morningglory [10, 19] | Morningglory plant response rating [10, 21] | Lambsquarters plant response rating [11, 22] | Crabgrass plant response rating [15, 21]
90: Plant response rating, Lambsquarters [11, 19]
80: Cocklebur plant response rating [8, 22] | Plant response rating, Cocklebur [8, 19] | Lambsquarters plant response rating [11, 21] | Plant response rating, Pigweed [17, 19] | Pigweed plant response rating [17, 21]
20: Foxtail, Giant plant response rating [7, 22] | Foxtail, Giant plant response rating [7, 21] | Plant response rating, Morningglory [10, 23]
10: Plant response rating, Wheat [9, 21] | Surinam Grass plant response rating [12, 22] | Plant response rating, Surinam Grass [12, 23]
0: Plant response rating, Rice [1] | Plant response rating, Barnyardgrass [2] | Plant response rating, Ducksalad [3] | Plant response rating, Sedge, Umbrella [4] | Plant response rating, Foxtail, Giant [7, 23] | Plant response rating, Wheat [9, 23] | Barnyardgrass plant response rating [13, 22] | Plant response rating, Barnyardgrass [13, 23] | Barnyardgrass plant response rating [13, 21] | Crabgrass plant response rating [15, 22] | Plant response rating, Crabgrass [15, 23] | Corn plant response rating [16, 22] | Plant response rating, Corn [16, 19] | Plant response rating, Corn [16, 23] | Corn plant response rating [16, 21]
